From PMC4287394 (Clinical cancer research : an official journal of the …, 2014)

Test: Phase I safety: adverse events, DLT, MTD, RP2D
Assay type: in vivo, human
[1] = 15mg 21/28, 4 patients, all grades
[2] = 30mg 21/28, 3 patients, all grades
[3] = 45mg 21/28, 4 patients, all grades
[4] = 60mg 21/28, 4 patients, all grades
[5] = 80mg 21/28, 3 patients, all grades
[6] = 100mg 21/28, 5 patients, all grades
[7] = 130mg 21/28, 3 patients, all grades
[8] = 130mg 21/28, 3 patients, grade ≥3
[9] = 180mg 21/28, 3 patients, all grades
[10] = 245mg 21/28, 3 patients, all grades
[11] = 330mg 21/28, 7 patients, all grades

## CS(=O)(=O)N1CCN(Cc2cc3nc(-c4cccc5[nH]ncc45)nc(N4CCOCC4)c3s2)CC1 [pictilisib, 2-(1H-indazol-4-yl)-6-(4-methanesulfonyl-piperazin-1-ylmethyl)-4-morpholin-4-yl-t hieno[3,2-d]pyrimidine]
[1]
  Any treatment-related adverse event, no. of patients: 2
  Decreased appetite, no. of patients with treatment-related AE: 0
  Diarrhea, no. of patients with treatment-related AE: 0
  Dysgeusia, no. of patients with treatment-related AE: 1
  Fatigue, no. of patients with treatment-related AE: 0
  Nausea, no. of patients with treatment-related AE: 1
  Rash (all rash preferred terms), no. of patients with treatment-related AE: 0
  Vomiting, no. of patients with treatment-related AE: 0
  Xeroderma, no. of patients with treatment-related AE: 0
[2]
  Any treatment-related adverse event, no. of patients: 1
  Decreased appetite, no. of patients with treatment-related AE: 0
  Diarrhea, no. of patients with treatment-related AE: 0
  Dysgeusia, no. of patients with treatment-related AE: 0
  Fatigue, no. of patients with treatment-related AE: 0
  Nausea, no. of patients with treatment-related AE: 0
  Rash (all rash preferred terms), no. of patients with treatment-related AE: 0
  Vomiting, no. of patients with treatment-related AE: 0
  Xeroderma, no. of patients with treatment-related AE: 0
[3]
  Any treatment-related adverse event, no. of patients: 2
  Decreased appetite, no. of patients with treatment-related AE: 0
  Diarrhea, no. of patients with treatment-related AE: 2
  Dysgeusia, no. of patients with treatment-related AE: 1
  Fatigue, no. of patients with treatment-related AE: 0
  Nausea, no. of patients with treatment-related AE: 0
  Rash (all rash preferred terms), no. of patients with treatment-related AE: 0
  Vomiting, no. of patients with treatment-related AE: 0
  Xeroderma, no. of patients with treatment-related AE: 0
[4]
  Any treatment-related adverse event, no. of patients: 2
  Decreased appetite, no. of patients with treatment-related AE: 0
  Diarrhea, no. of patients with treatment-related AE: 1
  Dysgeusia, no. of patients with treatment-related AE: 0
  Fatigue, no. of patients with treatment-related AE: 0
  Nausea, no. of patients with treatment-related AE: 2
  Rash (all rash preferred terms), no. of patients with treatment-related AE: 0
  Vomiting, no. of patients with treatment-related AE: 2
  Xeroderma, no. of patients with treatment-related AE: 0
[5]
  Any treatment-related adverse event, no. of patients: 3
  Decreased appetite, no. of patients with treatment-related AE: 0
  Diarrhea, no. of patients with treatment-related AE: 1
  Dysgeusia, no. of patients with treatment-related AE: 1
  Fatigue, no. of patients with treatment-related AE: 2
  Nausea, no. of patients with treatment-related AE: 1
  Rash (all rash preferred terms), no. of patients with treatment-related AE: 0
  Vomiting, no. of patients with treatment-related AE: 1
  Xeroderma, no. of patients with treatment-related AE: 0
[6]
  Any treatment-related adverse event, no. of patients: 3
  Decreased appetite, no. of patients with treatment-related AE: 0
  Diarrhea, no. of patients with treatment-related AE: 1
  Dysgeusia, no. of patients with treatment-related AE: 0
  Fatigue, no. of patients with treatment-related AE: 1
  Nausea, no. of patients with treatment-related AE: 3
  Rash (all rash preferred terms), no. of patients with treatment-related AE: 0
  Vomiting, no. of patients with treatment-related AE: 0
  Xeroderma, no. of patients with treatment-related AE: 0
130mg
  Patients with grade 4 hyperglycemia: 1
[7]
  Any treatment-related adverse event, no. of patients: 1
  Decreased appetite, no. of patients with treatment-related AE: 0
  Diarrhea, no. of patients with treatment-related AE: 0
  Dysgeusia, no. of patients with treatment-related AE: 0
  Fatigue, no. of patients with treatment-related AE: 0
  Nausea, no. of patients with treatment-related AE: 0
  Rash (all rash preferred terms), no. of patients with treatment-related AE: 0
  Vomiting, no. of patients with treatment-related AE: 0
  Xeroderma, no. of patients with treatment-related AE: 0
[8]
  Any treatment-related adverse event, no. of patients: 1
  Decreased appetite, no. of patients with treatment-related AE: 0
  Diarrhea, no. of patients with treatment-related AE: 0
  Dysgeusia, no. of patients with treatment-related AE: 0
  Fatigue, no. of patients with treatment-related AE: 0
  Nausea, no. of patients with treatment-related AE: 0
  Rash (all rash preferred terms), no. of patients with treatment-related AE: 0
  Vomiting, no. of patients with treatment-related AE: 0
  Xeroderma, no. of patients with treatment-related AE: 0
[9]
  Any treatment-related adverse event, no. of patients: 2
  Decreased appetite, no. of patients with treatment-related AE: 1
  Diarrhea, no. of patients with treatment-related AE: 1
  Dysgeusia, no. of patients with treatment-related AE: 1
  Fatigue, no. of patients with treatment-related AE: 1
  Nausea, no. of patients with treatment-related AE: 0
  Rash (all rash preferred terms), no. of patients with treatment-related AE: 1
  Vomiting, no. of patients with treatment-related AE: 0
  Xeroderma, no. of patients with treatment-related AE: 0
[10]
  Any treatment-related adverse event, no. of patients: 3
  Decreased appetite, no. of patients with treatment-related AE: 1
  Diarrhea, no. of patients with treatment-related AE: 2
  Dysgeusia, no. of patients with treatment-related AE: 0
  Fatigue, no. of patients with treatment-related AE: 1
  Nausea, no. of patients with treatment-related AE: 1
  Rash (all rash preferred terms), no. of patients with treatment-related AE: 0
  Vomiting, no. of patients with treatment-related AE: 0
  Xeroderma, no. of patients with treatment-related AE: 1
[11]
  Any treatment-related adverse event, no. of patients: 7
  Decreased appetite, no. of patients with treatment-related AE: 2
  Diarrhea, no. of patients with treatment-related AE: 3
  Dysgeusia, no. of patients with treatment-related AE: 1
  Fatigue, no. of patients with treatment-related AE: 4
  Nausea, no. of patients with treatment-related AE: 4
  Rash (all rash preferred terms), no. of patients with treatment-related AE: 4
  Vomiting, no. of patients with treatment-related AE: 3
  Xeroderma, no. of patients with treatment-related AE: 2
